From patent US20210379026A1, “METHODS FOR TREATING OR PREVENTING SKIN CONDITIONS” (Drexel University, priority 2018, published 2021) come the findings set out here.

In assay [1] the test system is p16. The assay can be described thus: Nuclear p16 immunohistochemistry of human skin biopsies after topical treatment. To be noted: formulation of 1 micromolar rapamycin, 0.5 cc daily, 240 days, vs vehicle control; FIG. 1. It is filed as in vivo. The method, then: Human skin was treated with a formulation of 1 micromolar rapamycin or an identical formulation containing a vehicle control for 240 days. 0.5 cc of the formulation was applied daily. Skin biopsies (N=8) were processed for immunohistochemistry and nuclear p16 was quantified using the Leica Aperio software system.

The test system of assay [2] is human skin. The experiment in a line: Histology (Hematoxylin Eosin stain) of dorsal hand skin biopsies after topical cream. It is filed as in vivo. The note with it: topical cream 10 μM vs placebo. The method, then:
(§1) Patients were provided with a proprietary topical formulation of rapamycin (0.001%; equivalent to 10 μM) or a placebo formulation that is identical with the exception that rapamycin was not included. For seborrheic keratosis, patients were instructed to apply the formulation to a localized area of the skin up to 1 cm around the lesion, in the evening before bed. Patients were instructed to apply the cream to the dorsal side of the hand once a day, in the evening before bed.
(§2) The cream included the following ingredients: Polyoxyethylene (40) stearate, Polyoxyethylene (20) sorbitan monooleate, glycerol monostearate, paraffin, cetyl alcohol, mineral oil, water, propylene glycol, sorbitol, glycerol, methylparaben.
(§3) Patients were provided with a 4 week supply of creams labeled by a number with no indication of whether they contained rapamycin. Patients were instructed to contact the study personnel if any irritation or negative reaction occurred at any time.
Hematoxylin Eosin stain of human skin biopsies from the dorsal hand of a patient following the application of a topical cream either containing rapamycin (10 μM) or placebo are shown in FIG. 2. Histologic evidence of actinic (solar) elastoses is indicated with an arrow.
40× magnified images of human skin biopsies from the dorsal hand of a patient following the application of a topical cream either containing rapamycin (10 μM) or placebo are shown in FIG. 3.
40× magnified images of human skin biopsies from the dorsal hand of a patient following the application of a topical cream either containing rapamycin (10 μM) or placebo are shown in FIG. 4.

The test system of assay [3] is cytokeratin 5/6. The experiment in a line: Cytokeratin 5/6 staining of dorsal hand skin biopsies after topical cream. It is filed as in vivo, human. To be noted: topical cream 10 μM vs placebo, dorsal hand biopsy; FIG. 5 and FIG. 6 (40×). The method, then: as §1, §2
Human skin biopsies from the dorsal hand of a patient following the application of a topical cream either containing rapamycin (10 μM) or placebo were stained with antibodies recognizing cytokeratin 5/6 (brown staining), which is a marker for basal cells in the epidermis.

In assay [4] the test system is human skin. The assay can be described thus: Clinical appearance of the hand after rapamycin cream versus placebo-treated hand. Format: in vivo. The note with it: 10 μM (0.001%) cream, 6 months, person, placebo on left hand; FIG. 7. The method, then:
as §1, §2, §3
Placebo treated left hand is provided for comparison.

Assay [5] concerns purpura. The assay can be described thus: Recurrent purpura in a patient under topical treatment. Format: in vivo, human. The note with it: 0.001%, 4.5 months, one person with recurrent purpura; FIG. 8. The method, then:
as §1
A person was treated with rapamycin (0.001%) for 4.5 months. The patient was a cancer survivor, multiple round of chemotherapy, recurrent purpura with subsequent scarring. […] Treatment was discontinued at end of trial.

Assay [6] deals with human cells. The experiment in a line: Protection of cultured cells from UV-induced cell death. Format: cell-based. The method, then: Cells grown in the presence or absence of 1 nM rapamycin were exposed to increasing amounts of UV radiation and cell numbers were determined following 24 hours. […] In FIG. 9B, a representative photograph of the control culture 24 hours following UV is presented. Note the typical hallmarks of apoptosis including rounded floating cells and typical cell blebbing.

Where [7] appears, read: dorsal hand biopsy, 40× images, FIG. 4.

“Also recorded” adds a separate entry of the source.

As to `CO[C@H]1C[C@@H]2CC[C@@H](C)[C@@](O)(O2)C(=O)C(=O)N2CCCC[C@H]2C(=O)O[C@H]([C@H](C)C[C@@H]2CC[C@@H](O)[C@H](OC)C2)CC(=O)[C@H](C)/C=C(\C)[C@@H](O)[C@@H](OC)C(=O)[C@H](C)C[C@H](C)/C=C/C=C/C=C/1C` [rapamycin], the “p16 levels in human skin (nuclear p16, immunohistochemistry)” value in assay [1] is “reduced the p16 levels in human skin”. In addition, the “histological markers of aged/damaged skin (actinic (solar) elastoses)” value in assay [2] (dorsal hand biopsies, multiple patients, FIG. 2) was “a reduction in the presence of these histological markers of aged/damaged skin”. Besides, the “arrangement of the epithelial layer” value in assay [2] (dorsal hand biopsy, 40× images, FIG. 3) was “more orderly arrangement of the epithelial layer”. In addition, in assay [2] (setting [7]), the “arrangement of collagen fibers” value is “more orderly arrangement of collagen fibers” and the solar elastoses result was “fewer solar elastoses”. For the same compound, the “location of cytokeratin 5/6 (CK 5/6) staining in the epidermis” value in assay [3] was “more focally located in the basal layer of the skin; also recorded: remained restricted to the basal layer”. Moreover, in assay [4], the “clinical improvement of the hand” value is on record as “clinical improvement”. In addition, the purpura entry in assay [5] was “significant reduction in purpura”. In addition, the “cell death following UV irradiation (percent cell loss)” value in assay [6] (1 nM rapamycin, increasing amounts of UV radiation, cell numbers after 24 hours, P=0.0044, FIG. 9A) is recorded as “reduction in cell death”. Also, the “apoptotic cells in culture after UV” value in assay [6] (culture grown in 1 nM rapamycin, 24 hours following UV, FIG. 9C) is listed as “notable lack of apoptotic cells”.
